Reference: PMC6213900, “Design, Synthesis, and Cytotoxic Analysis of Novel Hederagenin–Pyrazine Derivatives Based on Partial Least Squares Discriminant Analysis” (International Journal of Molecular Sciences, 2018)

How the values were obtained:
[1] = system: HepG2, A549, MCF-7, H9c2, and MDCK cells; assay: MTT assay, panel of five cell lines (summary in discussion); format: cell-based; conditions: read-out: IC50 values ranging (cell lines not specified)
Experimental: A series of different esters of He were designed and synthesized. All these compounds were screened for cytotoxic activity employing a panel of five cell lines, including HepG2, A549, MCF-7, H9c2, and MDCK cells, using the MTT assay. […] Further intensive modifications at C-23 and studies are currently being performed in our research group, and the results will be reported in due course.
The antitumor activity of these compounds were evaluated on MCF-7, A549, HepG2, MDCK, and H9c2 cell lines using the MTT assay. Cells at a density of 3 × 10^3 cells/well were plated in a 96-multiwell plate in DMEM containing 10% FBS for 24 h at 37 °C with 5% CO2. Then, cells were treated for 72 h with the required concentrations (3.125, 6.25, 12.5, 25, or 50 μM) of the compounds and reference drugs (He and DDP) dissolved with the vehicle DMSO. After that, the culture substrate was replaced with 200 μL of DMEM containing 20 μL of MTT solution at 5 mg/mL and incubated for 4 h. The supernatant was removed and the dissolved formazans precipitated with 120 μL of DMSO. Wells without drugs were used as blanks. A plate reader was used to determine the absorbance at 490 nm. The above steps were repeated three times. The IC50 values were defined as the concentration of the compound which gave 50% growth inhibition, and they were calculated using Graph Pad Prism 5. […]

A549 cells [2] = assay: Giemsa staining, morphological detection of apoptosis; format: cell-based, human; conditions: 72 h
Experimental: With an increase in dose, the phenomenon of cell shrinkage and cell disruption became more obvious.
A549 cells in the logarithmic growth phase were seeded in 12-well plates (1.2 × 10^4 cells/well). After incubation for 24 h at 37 °C with 5% CO2, various concentrations (0, 2, 4, or 6 μM) of compound 9 were added to the cultures, and the plate was incubated for further 72 h. Then, we discarded the cell culture fluid, washed twice with phosphate-buffered saline (PBS), and fixed the cells with cold methanol. The A549 cells were stained with 6% Giemsa solution for 5 min, washed with water, and dried. The cell morphological changes were observed under an inverted microscope.

A549 cells [3] = assay: Annexin V-FITC/PI staining, flow cytometry; format: cell-based, human; conditions: 72 h
Experimental: To further depict the apoptosis induced by compound 9, apoptotic rates were analyzed by flow cytometry using Annexin V-FITC/PI staining.
According to instructions, A549 cells were stained with an annexin-V FITC apoptosis detection kit (Beijing BioDee Biotech. Co., Ltd., Beijing, China). A549 cells in the logarithmic growth phase were seeded in six-well plates (4.8 × 10^4 cells/well). After incubation for 24 h at 37 °C with 5% CO2, various concentrations (0, 2, 5, or 10 μM) of compound 9 were added to the cultures, and the plate was incubated for a further 72 h. A549 cells were collected, washed twice with cold PBS, and centrifuged at 2400 rpm for 10 min. The resulting pellet was mixed with 200 μL of binding buffer of the Annexin V-FITC kit; then, 5 μL of FITC-labeled annexin V was added and mixed gently. After incubation at 4 °C for 10 min in the dark, 5 μL of PI was added. Then, the cells were immediately analyzed with a flow cytometer at 488 nm.

Cc1cncc(C(=O)OCCOC(=O)[C@]23CCC(C)(C)CC2C2=CCC4[C@@]5(C)CC[C@H](O)[C@@](C)(CO)C5CC[C@@]4(C)[C@]2(C)CC3)n1 (stereo partly drawn) [Compound 9, 2-(((4aS,6aS,6bR,9R,10S,12aR)-10-Hydroxy-9-(hydroxymethyl)-2,2,6a,6b,9,12a-hexamethyl-1,2,3,4,4a,5,6,6a,6b,7,8,8a,9,10,11,12,12a,12b,13,14b-icosahydropicene-4a-carbonyl)oxy)ethyl-6-methylpyrazine-2-carboxylate]
IC50 [1]: 3.22 to 4.48 µM
cell morphology, Giemsa staining (A549 cells [2]; 2 μM): the cells had a lot of puffing and fragmentation
cell morphology, Giemsa staining (A549 cells [2]; 6 μM): almost no normal cell morphology
percentage of apoptotic cells (early and late apoptosis) (A549 cells [3]; 2 μM): 17.4%
percentage of apoptotic cells (early and late apoptosis) (A549 cells [3]; 5 μM): 72.0%
percentage of apoptotic cells (early and late apoptosis) (A549 cells [3]; 10 μM): 91.5%
